In general, IC50 refers to the midpoint of a concentration-inhibition curve.

The target of assay [1] is T1, beta-catenin/TCF4 engagement (Homo sapiens, UniProt P35222).
T1 construct: expressed in transfected cells; host or cells: HEK293
T1 sequence (P35222 1-781): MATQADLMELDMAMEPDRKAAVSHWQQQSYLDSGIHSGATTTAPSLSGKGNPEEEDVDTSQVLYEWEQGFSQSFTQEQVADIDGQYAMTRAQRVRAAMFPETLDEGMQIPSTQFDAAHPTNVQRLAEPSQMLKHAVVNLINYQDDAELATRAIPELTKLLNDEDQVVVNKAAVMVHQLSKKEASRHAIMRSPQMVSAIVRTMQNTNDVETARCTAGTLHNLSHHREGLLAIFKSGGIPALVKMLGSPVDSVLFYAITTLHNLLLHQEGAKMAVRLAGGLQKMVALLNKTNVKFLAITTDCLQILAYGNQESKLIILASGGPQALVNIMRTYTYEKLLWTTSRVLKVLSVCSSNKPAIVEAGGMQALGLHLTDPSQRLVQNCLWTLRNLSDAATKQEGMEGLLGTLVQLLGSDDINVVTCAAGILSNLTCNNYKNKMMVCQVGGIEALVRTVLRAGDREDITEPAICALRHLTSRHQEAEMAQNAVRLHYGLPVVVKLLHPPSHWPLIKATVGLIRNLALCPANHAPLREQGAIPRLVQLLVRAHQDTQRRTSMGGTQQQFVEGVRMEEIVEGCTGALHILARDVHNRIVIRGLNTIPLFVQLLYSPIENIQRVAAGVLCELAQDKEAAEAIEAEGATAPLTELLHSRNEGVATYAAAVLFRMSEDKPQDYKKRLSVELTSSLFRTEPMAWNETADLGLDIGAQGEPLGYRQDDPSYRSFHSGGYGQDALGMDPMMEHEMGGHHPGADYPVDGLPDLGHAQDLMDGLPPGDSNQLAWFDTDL
Nature of the assay: Nano-BRET target engagement assay (B-cat-Halo & TCF4-Luc in HEK293 cells). The class given is cell-based. Particulars: read-out: NanoBRET Abs IC50.

Assay [2] has as its target T2, full-length beta-Catenin (Uniprot ID P35222) (Homo sapiens, UniProt P35222).
T2 construct: 10 nM full-length beta-Catenin (Uniprot ID P35222)
T2 sequence (P35222 1-781): T1 sequence (P35222 1-781)
Nature of the assay: Fluorescence polarization IC50 (beta-catenin / 5FAM-TCF4 10-53 competition). Particulars: fluorescence polarization; read-out: beta-Catenin FP IC50. The class given is binding. In general terms: In fluorescence polarisation assays a small probe gives low polarisation when free and higher when bound to something large.

Assay [3] deals with TCF/LEF luciferase Reporter in DLD1 cells. Nature of the assay: TCF reporter assay (DLD1 TCF/LEF luciferase reporter, Bright-Glo). It counts as cell-based. Particulars: read-out: DLD1 4% Abs IC50. In short, it runs like this: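 DLD1 cells stably carrying a TCF/LEF luciferase reporter were plated at 5000 cells/well in RPMI + 4% FBS and treated overnight with a 1:2 compound dilution series. Bright-Glo luminescence read on day 3; viability by CellTiter-Glo. Absolute IC50 determined.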

The mark [4] stands for this setting: DLD1 reporter assay, 4%, absolute IC50.

Like-named read-outs stand apart in the source and are kept apart here.

For `CC(=O)N1CCC[C@]12CC=CCCCC1(CCCC=CCCCOC(=O)N3CC[C@@](C(=O)N[C@@H](Cc4ccsc4)C(=O)N[C@@H](Cc4csc5ccccc45)C(=O)N[C@@H](CCC(N)=O)C(N)=O)(C3)NC(=O)[C@H](CC(C)C)NC(=O)[C@H](Cc3ccccc3)NC(=O)[C@H](C)NC(=O)[C@H](C)NC(=O)[C@H](CN(CCCC(F)(F)F)CC(=O)O)NC(=O)[C@H](CC(=O)O)NC1=O)NC(=O)[C@H](CC(C)(C)C)NC(=O)[C@H](CC(=O)O)NC2=O` (stereo partly drawn) [I-1629, Ac-PL3-Asp-Npg-B5-Asp-[Tfb]GA-Ala-Ala-Phe-Leu-PyrS2-3Thi-BztA-Gln-NH2], the IC50 in assay [1] (absolute IC50) is 4.3 µM; in assay [2], 0.012 µM; in assay [3] (setting [4]), 2.7 µM.
The matching figures for `CC(=O)N1CCC[C@]12CC=CCCCC1(CCCC=CCCCOC(=O)N3CC[C@@](C(=O)N[C@@H](Cc4ccsc4)C(=O)N[C@@H](Cc4csc5ccccc45)C(=O)N[C@@H](CCC(N)=O)C(N)=O)(C3)NC(=O)[C@H](CC(C)C)NC(=O)[C@H](Cc3ccccc3)NC(=O)[C@H](C)NC(=O)[C@H](C)NC(=O)[C@H](CN(CC(=O)O)Cc3c(F)c(F)c(F)c(F)c3F)NC(=O)[C@H](CC(=O)O)NC1=O)NC(=O)[C@H](CC(C)(C)C)NC(=O)[C@H](CC(=O)O)NC2=O` (stereo partly drawn) [I-1632, Ac-PL3-Asp-Npg-B5-Asp-[Pfbn]GA-Ala-Ala-Phe-Leu-PyrS2-3Thi-BztA-Gln-NH2]: 6.5 µM, 0.01 µM and 2.6 µM.
The corresponding values for `CC(=O)N1CCC[C@]12CC=CCCCC1(CCCC=CCCCOC(=O)N3CC[C@@](C(=O)N[C@@H](Cc4ccccc4Cl)C(=O)N[C@@H](Cc4csc5ccccc45)C(=O)N[C@@H](CCC(N)=O)C(N)=O)(C3)NC(=O)[C@H](CC(C)C)NC(=O)[C@H](Cc3ccccc3)NC(=O)[C@H](C)NC(=O)CNC(=O)[C@H](Cc3cccc(C(=O)O)c3)NC(=O)[C@H](CC(=O)O)NC1=O)NC(=O)[C@H](CC(C)(C)C)NC(=O)[C@H](CC(=O)O)NC2=O` (stereo partly drawn) [I-1684, Ac-PL3-Asp-Npg-B5-Asp-3COOHF-Gly-Ala-Phe-Leu-PyrS2-2C1F-BztA-Gln-NH2] are 4.5 µM, 0.013 µM and 3.4 µM.
The corresponding values for `CCCC[C@@H]1NC(=O)[C@H](Cc2cccc(C(=O)O)c2)NC(=O)[C@H](CC(=O)O)NC(=O)C2(CCCC=CCCCOC(=O)N3CC[C@@](C(=O)N[C@@H](Cc4ccccc4Cl)C(=O)N[C@@H](Cc4csc5ccccc45)C(=O)N[C@@H](CCC(N)=O)C(N)=O)(C3)NC(=O)[C@H](CC(C)C)NC(=O)[C@H](Cc3ccccc3)NC(=O)[C@H](C)NC1=O)CCCC=CC[C@]1(CCCN1C(C)=O)C(=O)N[C@@H](CC(=O)O)C(=O)N[C@@H](CC(C)(C)C)C(=O)N2` (stereo partly drawn) [I-1685, Ac-PL3-Asp-Npg-B5-Asp-3COOHF-nLeu-Ala-Phe-Leu-PyrS2-2C1F-BztA-Gln-NH2] are 3.5 µM, 0.023 µM and 1.3 µM.
Take `CC(=O)N1CCC[C@]12CC=CCCCC1(CCCC=CCCCOC(=O)N3CC[C@@](C(=O)N[C@@H](Cc4ccsc4)C(=O)N[C@@H](Cc4csc5ccccc45)C(=O)N[C@H](C(N)=O)[C@@H](C)O)(C3)NC(=O)[C@H](CC(C)C)NC(=O)[C@H](Cc3ccccc3)NC(=O)[C@H](C)NC(=O)[C@H](C)NC(=O)[C@H](CN(CC(=O)O)CC(F)(F)F)NC(=O)[C@H](CC(=O)O)NC1=O)NC(=O)[C@H](CC(C)(C)C)NC(=O)[C@H](CC(=O)O)NC2=O` (stereo partly drawn) [I-1706, Ac-PL3-Asp-Npg-B5-Asp-TfeGA-Ala-Ala-Phe-Leu-PyrS2-3Thi-BztA-Thr-NH2]: the IC50 in assay [1] (absolute IC50) was determined as 4.8 µM; in assay [2], 0.024 µM; in assay [3] (setting [4]), 2.7 µM.
Turning to `CC(=O)NCCCC[C@H](NC(=O)[C@H](Cc1csc2ccccc12)NC(=O)[C@H](Cc1ccsc1)NC(=O)[C@]12CCN(C1)C(=O)OCCCC=CCCCC1(CCCC=CC[C@]3(CCCN3C(C)=O)C(=O)N[C@@H](CC(=O)O)C(=O)N[C@@H](CC(C)(C)C)C(=O)N1)C(=O)N[C@@H](CC(=O)O)C(=O)N[C@@H](CN(CC(=O)O)CC(F)(F)F)C(=O)N[C@@H](C)C(=O)N[C@@H](C)C(=O)N[C@@H](Cc1ccccc1)C(=O)N[C@@H](CC(C)C)C(=O)N2)C(N)=O` (stereo partly drawn) [I-1709, Ac-PL3-Asp-Npg-B5-Asp-TfeGA-Ala-Ala-Phe-Leu-PyrS2-3Thi-BztA-AcLys-NH2], the IC50 in assay [1] (absolute IC50) was 6.2 µM; in assay [2], 0.014 µM; in assay [3] (setting [4]) it was 3.9 µM.
`CC(=O)N1CCC[C@]12CC=CCCCC1(CCCC=CCCCOC(=O)N3CC[C@@](C(=O)N[C@@H](Cc4ccsc4)C(=O)N[C@@H](Cc4csc5ccccc45)C(=O)N[C@@H](C)C(N)=O)(C3)NC(=O)[C@H](CC(C)C)NC(=O)[C@H](Cc3ccccc3)NC(=O)[C@H](C)NC(=O)[C@H](C)NC(=O)[C@H](CN(CC(=O)O)CC(F)(F)F)NC(=O)[C@H](CC(=O)O)NC1=O)NC(=O)[C@H](CC(C)(C)C)NC(=O)[C@H](CC(=O)O)NC2=O` (stereo partly drawn) [I-1710, Ac-PL3-Asp-Npg-B5-Asp-TfeGA-Ala-Ala-Phe-Leu-PyrS2-3Thi-BztA-Ala-NH2]: the IC50 came to 3.9 µM in assay [1] (absolute IC50), 0.022 µM in assay [2] and 1.9 µM in assay [3] (setting [4]).
With `CC(=O)N1CCC[C@]12CC=CCCCC1(CCCC=CCCCOC(=O)N3CC[C@@](C(=O)N[C@@H](Cc4ccsc4)C(=O)N[C@@H](Cc4csc5ccccc45)C(=O)N[C@@H](C)C(N)=O)(C3)NC(=O)[C@H](CC(C)C)NC(=O)[C@H](Cc3ccccc3)NC(=O)[C@H](C)NC(=O)[C@H](CCC(N)=O)NC(=O)[C@H](Cc3cccc(C(=O)O)c3)NC(=O)[C@H](CC(=O)O)NC1=O)NC(=O)[C@H](CC(C)(C)C)NC(=O)[C@H](CC(=O)O)NC2=O` (stereo partly drawn) [I-1918, Ac-PL3-Asp-Npg-B5-Asp-3COOHF-Gln-Ala-Phe-Leu-PyrS2-3Thi-BztA-Ala-NH2], the IC50 in assay [1] was found to be 4 µM; in assay [2] it was 0.005 µM; in assay [3] (DLD1 4%), 6.5 µM.
In the case of `CC(=O)N1CCC[C@]12CC=CCCCC1(CCCC=CCCCOC(=O)N3CC[C@@](C(=O)N[C@@H](Cc4ccsc4)C(=O)N[C@@H](Cc4csc5ccccc45)C(=O)N[C@@H](C)C(N)=O)(C3)NC(=O)[C@H](CC(C)C)NC(=O)[C@H](Cc3ccccc3)NC(=O)[C@H](C)NC(=O)C(C)(C)NC(=O)[C@H](Cc3cccc(C(=O)O)c3)NC(=O)[C@H](CC(=O)O)NC1=O)NC(=O)[C@H](CC(C)(C)C)NC(=O)[C@H](CC(=O)O)NC2=O` (stereo partly drawn) [I-1920, Ac-PL3-Asp-Npg-B5-Asp-3COOHF-Aib-Ala-Phe-Leu-PyrS2-3Thi-BztA-Ala-NH2], the results for the IC50 in assay [1], in assay [2] and in assay [3] (DLD1 4%) were 3.1 µM, 0.018 µM and 1.2 µM, respectively.
The matching figures for `CC(=O)N1CCC[C@]12CC=CCCCC1(CCCC=CCCCOC(=O)N3CC[C@@](C(=O)N[C@@H](Cc4ccsc4)C(=O)N[C@@H](Cc4csc5ccccc45)C(=O)N[C@@H](CC(N)=O)C(=O)N[C@@H](C)C(=O)N[C@@H](C)C(=O)N[C@H](C)C(N)=O)(C3)NC(=O)[C@H](CC(C)C)NC(=O)[C@H](Cc3ccccc3)NC(=O)[C@H](C)NC(=O)[C@H](C)NC(=O)[C@H](Cc3cccc(C(=O)O)c3)NC(=O)[C@H](CC(=O)O)NC1=O)NC(=O)[C@H](CC(C)(C)C)NC(=O)[C@H](CC(=O)O)NC2=O` (stereo partly drawn) [I-2047, Ac-PL3-Asp-Npg-B5-Asp-3COOHF-Ala-Ala-Phe-Leu-PyrS2-3Thi-BztA-Asn-Ala-Ala-dAla-NH2]: 2.6 µM, 0.011 µM and 1.3 µM.
